Source: patent publication US12384754B2, “Cocrystals of (1R,3S)-3-(5-cyano-4-phenyl-1,3-thiazol-2-ylcarbamoyl)cyclopentane carboxylic acid” (PALOBIOFARMA, S.L., priority 2020, dated 2025)
Where two headings read alike, the source gives them in different places.

Tests used:
[1] = Comparative bioavailability assay in healthy volunteers; type: in vivo; conditions: for AUC0-t, MEAN ± SD / AUC0-t, geometric mean / AUC0-∞, MEAN ± SD / AUC0-∞, geometric mean / Cmax / Tmax / Cmax, MEAN ± SD / Cmax, geometric mean / tmax, median and range: single oral dose, Example 1 5 mg, Example 2 7.3 mg; for Cmax / Tmax: male, human, plasma, po, 5 mg; for Tmax: read-out: tmax, median and range
Experimental: Healthy volunteers in this study will be males 18 years of age or older in order to assess the comparative bioavailability of compound of Example 2 versus compound of Example 1, under fasting conditions and to investigate the effect of a high fat, high calorie meal. Compounds will be administered orally in single dose of Example 1 (5 mg) and Example 2 (7.3 mg). The study will have a randomized, open-label, four-fold crossover design.
In order to determine comparative bioavailability AUC0-t (AUC0-t: Area under the plasma concentration-time curve from time 0 h to the last measurable concentration) and Cmax (Cmax: Observed maximum plasma concentration (peak exposure)) will be determined after each administration.
16 volunteers were included in the study. […] Therefore, all the data were included in all pharmacokinetic measurements and calculations, without any adjustment.

[2] = Plasma pharmacokinetics / oral bioavailability after single IV and PO administration; type: in vivo; conditions: male SD rats; for F % (bioavailability): po 5 mg/Kg vs iv 1 mg/Kg
Experimental: The objective of this study was to investigate the plasma pharmacokinetics of differentes cocrystals obtained from (1R,3S)-3-(5-cyano-4-phenyl-1, 3-thiazol ylcarbamoyl) cyclopentane carboxylic acid, following a single intravenous (IV) and oral (PO) administration in male SD rats.
Animals were divided into two groups: Group 1 (IV: 1 mg/kg) and Group 2 (PO: 5 mg/kg). Animals in Group 1 and 2 were administered a solution of the different cocrystals of (1R,3S)-3-(5-cyano-4-phenyl-1,3-thiazol-2-ylcarbamoyl) cyclopentane carboxylic acid in normal saline. The blood samples were collected from set of three rats at each time point in labeled micro centrifuge tube containing K2EDTA solution as anticoagulant at Pre-dose, 0.083, 0.25, 0.5, 1, 2, 4, 8 and 24 hr (IV) and Pre-dose, 0.25, 0.5, 1, 2, 4, 6, 8 and 24 hr (PO). Plasma samples were separated by centrifugation of whole blood and stored below −70±10° C. until bioanalysis. All samples were processed for analysis by protein precipitation using acetonitrile and analyzed with fit-for-purpose LC-MS/MS method (LLOQ=1.00 ng/ml). Pharmacokinetic parameters were calculated using the non-compartmental analysis tool of Phoenix WinNonlin® (Version 6.3).

[3] = pKa / ΔpKa of free acid and cocrystal forming compounds; type: physicochemical
From the text: Cocrystals are distinguished from salts because unlike salts, the components that co-exist in the cocrystal lattice with a defined stoichiometry interact nonionically. […] If this criterion is met, the API-coformer entity should be classified as a cocrystal. (Regulatory Classification of Pharmaceutical Co-Crystals Guidance for Industry, February 2018, http://www.fda.gov/Drugs/GuidanceComplianceRegulatotyInformation/Guidances/default.htm).

[4] = Hygroscopicity study by DVS (Dynamic Vapour Sorption); type: physicochemical; conditions: for moisture content, 15% RH / moisture content, 35% RH / moisture content, 55% RH / moisture content, 75% RH: DVS, 25° C.; for variation in the moisture content: at 75% RH
Experimental: Hygroscopicity study. The hygroscopicity of cocrystals was determined by DVS (Dynamic Vapour Sorption) with a Q5000 TA instrument. This is a gravimetric technique that measures the amount of water absorbed or desorbed by a sample at different relative humidities (RH). At each RH level, the sample mass must be allowed to reach gravimetric equilibrium (or surpass the time limit) before progressing to the next humidity level. Sorption and desorption isotherms were performed at 25° C. over a range of 0-95% RH. The sample was not previously dried, but it was exposed to 0% RH until reaching a stable weight before starting the DVS cycle. This equilibration step allows the elimination of the possible adsorbed humidity from the atmosphere. The relative humidity (RH) was controlled by a mixture of wet and dry nitrogen stream. The RH was held constant until the equilibrium had been obtained (constant weight) or until the maximum time has been reached, before changing the RH to the next level.

[5] = Crystalline stability under accelerated storage conditions (40° C., 75±5 RH %), XRPD; type: physicochemical; conditions: for Stability, 1 week / Stability, 2 weeks / Stability, 3 weeks / Stability, 4 weeks: 40° C., 75±5 RH %, XRPD; for Stability under forced conditions (one week) and in 4-weeks stability assay: crystallinity, colour, aspect
Experimental: Crystalline stability study was performed under accelerated stability conditions (40° C., 75±5 RH %) for one week. A sample of each form stored on a XRPD silicon holder was exposed in a climatic chamber. It is worth noting that these conditions are very drastic because the high surface exposed to the storage conditions might favour possible crystalline conversion. The samples were periodically analysed by XRPD to observe possible transformation.
Additional crystalline stability study was performed under accelerated stability conditions (40° C., 75±5 RH %). Cocrystal samples were stored in an open vial and exposed in a climate chamber maintaining the conditions set with accuracy (40° C.-75% RH ±5 RH). These samples were analysed weekly for 1 month.
The stability of the cocrystalline forms of (1R,3S)-3-(5-cyano-4-phenyl-1,3-thiazol ylcarbamoyl) cyclopentane carboxylic acid were studied under accelerated storage conditions (40° C., 75±5 RH %) for one to four week. See results in Table 5.
After time exposure, cocrystals remained stable according to XRPD analysis. Amorphization or appearance of crystalline forms was not detected in the limit of detection of the analysis conditions.

[6] = Fed (high fat, high calorie meal)

Row | F % (bioavailability) [2] | AUClast ([2]; po, 5 mg/Kg) | Cmax ([2]; po, 5 mg/Kg) | moisture content, 15% RH [4] | moisture content, 35% RH [4] | moisture content, 55% RH [4] | moisture content, 75% RH [4] | variation in the moisture content [4] | Stability, 1 week [5] | Stability, 2 weeks [5] | Stability, 3 weeks [5] | Stability, 4 weeks [5] | SMILES | Stability under forced conditions (one week) and in 4-weeks stability assay [5] | further results
1 | 47% | 5.20071 µg·h/mL | 2.012 µg/mL | 0.0168 | 0.1842 | 0.3008 | 0.4369 | 0.43% | – | – | – | – | N#Cc1sc(NC(=O)[C@H]2CC[C@@H](C(=O)O)C2)nc1-c1ccccc1 [Example 1, (1R,3S)-3-(5-cyano-4-phenyl-1,3-thiazol-2-ylcarbamoyl) cyclopentane carboxylic acid] | – | AUC0-t, MEAN ± SD ([1]; Fasting): 1155.0 ± 567.8 ng/mLxh; AUC0-t, geometric mean ([1]; Fasting): (1052.8) ng/mLxh; AUC0-∞, MEAN ± SD ([1]; Fasting): 1257.2 ± 661.9 ng/mLxh; AUC0-∞, geometric mean ([1]; Fasting): (1132.2) ng/mLxh; AUC0-t, MEAN ± SD [1, 6]: 588.1 ± 160.9 ng/mLxh; AUC0-t, geometric mean [1, 6]: (567.9) ng/mLxh; AUC0-∞, MEAN ± SD [1, 6]: 657.9 ± 191.4 ng/mLxh; AUC0-∞, geometric mean [1, 6]: (632.7) ng/mLxh; Cmax ([1]; Fasting, read-out: Cmax, MEAN ± SD): 0.187 ± 0.0716 µg/mL; Cmax ([1]; Fasting, read-out: Cmax, geometric mean): 0.176 µg/mL; Tmax ([1]; Fasting): 2.5 h; Cmax ([1]; Fed (high fat, high calorie meal), read-out: Cmax, MEAN ± SD): 0.068 µg/mL; Cmax ([1]; Fed (high fat, high calorie meal), read-out: Cmax, geometric mean): 0.0656 µg/mL; Tmax [1, 6]: 7 h; pKa ([3]; free acid, read-out: pKa): 4.3
2 | 100% | 16.50248 µg·h/mL | 8.64228 µg/mL | 0.0079 | 0.0175 | 0.0398 | 0.1035 | 0.10% | stable | stable | stable | stable | N#Cc1sc(NC(=O)[C@H]2CC[C@@H](C(=O)O)C2)nc1-c1ccccc1.O=C(O)c1cc(O)ccc1O [Example 2, cocrystal of (1R,3S)-3-(5-cyano-4-phenyl-1,3-thiazol-2-ylcarbamoyl) cyclopentane carboxylic acid and gentisic acid] | no crystallinity changes, colour or any other change in the aspect were observed | AUC0-t, MEAN ± SD ([1]; Fasting): 1138.5 ± 451.1 ng/mLxh; AUC0-t, geometric mean ([1]; Fasting): (1071.4) ng/mLxh; AUC0-∞, MEAN ± SD ([1]; Fasting): 1216.5 ± 483.3 ng/mLxh; AUC0-∞, geometric mean ([1]; Fasting): (1141.7) ng/mLxh; Cmax, MEAN ± SD ([1]; Fasting): 0.1737 ± 0.0607 µg/mL; Cmax, geometric mean ([1]; Fasting): (165.8) ng/mL; tmax, median and range ([1]; Fasting): 2.25 (1.5-5.0) h; AUC0-t, MEAN ± SD [1, 6]: 599.1 ± 132.1 ng/mLxh; AUC0-t, geometric mean [1, 6]: (585.9) ng/mLxh; AUC0-∞, MEAN ± SD [1, 6]: 675.0 ± 158.8 ng/mLxh; AUC0-∞, geometric mean [1, 6]: (659.1) ng/mLxh; Cmax, MEAN ± SD [1, 6]: 0.0736 ± 0.0251 µg/mL; Cmax, geometric mean [1, 6]: (69.8) ng/mL; tmax, median and range [1, 6]: 7.0 (5.0-7.0) h; Cmax compared with Example 1 ([1]; administered after a high fat meal): slightly higher; AUClast ([2]; iv, 1 mg/Kg): 3.30455 µg·h/mL; Clearance ([2]; iv, 1 mg/Kg): 0.302 L/h/kg; Hygroscopicity compared with the free acid ([4]; usual storage conditions of drugs (<75% RH), up to 75% RH, listed as cocrystal with gentisic acid): less hygroscopic than free acid; Hygroscopicity compared with the free acid ([4]; usual storage conditions of drugs (<75% RH), up to 75% RH, listed as gentisic acid cocrystal): less hygroscopicity than the free acid
3 | 100% | 19.23803 µg·h/mL | 10.22747 µg/mL | 0.015 | 0.0339 | 0.0545 | 0.0895 | 0.08% | stable | stable | stable | stable | N#Cc1sc(NC(=O)[C@H]2CC[C@@H](C(=O)O)C2)nc1-c1ccccc1.NC(N)=O [Example 3, cocrystal of (1R,3S)-3-(5-cyano-4-phenyl-1,3-thiazol-2-ylcarbamoyl) cyclopentane carboxylic acid and urea] | no crystallinity changes, colour or any other change in the aspect were observed | AUClast ([2]; iv, 1 mg/Kg): 2.71455 µg·h/mL; Clearance ([2]; iv, 1 mg/Kg): 0.367 L/h/kg; Hygroscopicity compared with the free acid ([4]; usual storage conditions of drugs (<75% RH), up to 75% RH, listed as cocrystal with urea): less hygroscopic than free acid; Hygroscopicity compared with the free acid ([4]; usual storage conditions of drugs (<75% RH), up to 75% RH, listed as urea cocrystal): less hygroscopicity than the free acid
4 | – | – | – | – | – | – | – | – | – | – | – | – | O=C(O)c1cc(O)ccc1O [Gentisic acid, 2,5-dihydroxybenzoic acid] | – | pKa conjugated base ([3]; cocrystal forming compound): Not basic
5 | – | – | – | – | – | – | – | – | – | – | – | – | NC(=O)c1cccnc1 [Nicotinamide, 3-pyridinecarboxamide] | – | ΔpKa ([3]; between the free acid (pKa 4.3) and the cocrystal forming compound): 0.9; pKa ([3]; cocrystal forming compound, read-out: pKa conjugated base): 3.4
6 | – | – | – | – | – | – | – | – | – | – | – | – | NC(N)=O [Urea, urea] | – | pKa conjugated base ([3]; cocrystal forming compound): Not basic

Row | SMILES | F % (bioavailability) [2] | AUClast ([2]; po, 5 mg/Kg) | Cmax ([2]; po, 5 mg/Kg) | moisture content, 15% RH [4] | moisture content, 35% RH [4] | moisture content, 55% RH [4] | moisture content, 75% RH [4] | variation in the moisture content [4] | Stability, 1 week [5] | Stability, 2 weeks [5] | Stability, 3 weeks [5] | Stability, 4 weeks [5] | Stability under forced conditions (one week) and in 4-weeks stability assay [5] | further results
7 | N#Cc1sc(NC(=O)[C@H]2CC[C@@H](C(=O)O)C2)nc1-c1ccccc1.NC(=O)c1cccnc1 [Example 4, cocrystal of (1R,3S)-3-(5-cyano-4-phenyl-1,3-thiazol-2-ylcarbamoyl) cyclopentane carboxylic acid and nicotinamide] | – | – | – | 0.029 | 0.066 | 0.165 | 0.4584 | – | stable | stable | stable | stable | no crystallinity changes, colour or any other change in the aspect were observed | Hygroscopicity compared with the free acid ([4]; range between 5-70% RH): less hygroscopicity than the free acid
